From patent US11998481B2, “Methods and compositions for iontophoretic drug delivery to the eye” (University of Florida Research Foundation, Inc., priority 2018, dated 2024)

Tests used:
Assay type in all cases: in vitro ADME, rabbit
[1] = Ex vivo iontophoretic delivery of fluorescein to the posterior eye segment, quantified in the vitreous by fluorometer; conditions: for Flux (time averaged): calculated from final concentration in the vitreous; for Concentration in Vitreous: lens loaded with 0.01 mg/mL fluorescein in HEPES; for electrophoretic velocity from the data of Table 3: order of magnitude
Source text: (§1) Materials: Mature cadaver rabbit eyes were purchased from Pel-Freez Biologicals (Rogers, AR). The Nile Blue A dye (75% dye content) and Fluorescein were purchased from Sigma-Aldrich (St. Louis, MO). Electrode materials were made 3D printed with conductive PLA filament (Proto Pasta, Vancouver, WA). Cadaver rabbit eyes were fixed in Margo solution containing paraformaldehyde and glutaraldehyde purchased from Fisher Scientific (Hampton, NH). Soaking agents for lenses included phosphate buffered saline (PBS) or a HEPES solution purchased from Fisher Scientific (Hampton, NH). Commercial contact lenses Acuvue Oasys (14 mm diameter, 8.4 mm base curve, 0.0 power) were used in the study.
(§2) Lens Preparation: Contact lenses were loaded by soaking in a 1 mg/mL Nile Blue solution in PBS or in a 0.01 mg/mL fluorescein solution in HEPES overnight. Lenses were loaded overnight in an enclosed space to prevent photobleaching of any species. […] Both species have low molecular weights and therefore have rapid uptakes into the lenses.
(§3) Application of Electric Field: Loaded contact lenses were placed at the periphery of the cornea, on the sclera, and the two electrodes were placed over the lenses. Electrodes were attached to a power source that was set to the desired current (FIG. 8). A syringe pump was configured to gently apply a drop of PBS (≈30 μL) every 30 seconds on to the cornea and would flow to the lenses, providing a thin film to keep them hydrated. The application of PBS also served as an approximate mimic of the in vivo tear film. The submersion of the lens was also crucial to ensure that if any bubbling from electrochemically generated gases were to occur, it would be easily visible. The field was applied for the desired duration and then the power source and lenses were removed. Experiments were conducted with the lenses soaked in PBS for the anode component and HEPES for the cathode. The Nile Blue and fluorescein experiments were each conducted with three different combinations of time and current.
Quantification of Fluorescein Delivery: Delivery of fluorescein to the posterior eye segment was conducted four times for each variation of time and current. After completion, eyes were submerged in PBS for 1 hour and then refrozen. Once the eyes had completely solidified, the vitreous was removed by cutting away the rest of the eye. All samples of same time and current were combined and thawed. After thawing was complete, the vitreous was put through a 0.22 μm filter to ensure no excessive tissue was present in the system. Relative fluorescent intensity of each sample was found using a Quantech fluorometer and the corresponding concentrations of fluorescein was found through a calibration curve.
Efficient transport of fluorescein to the vitreous: The fluorescein was loaded into lenses in a HEPES solution, which alleviated the damage done to the eye during the generation of caustic species from the electrochemical reactions. In order to quantify the delivery of fluorescein to the posterior eye segment, experiments were conducted at three different combinations or time and current and were compared to a control. The electric fields chosen were 0.25 mA (high current) and 0.125 mA (low current) for either 1 hour (short time) or 2 hours (long time). After the application of the electric field to the sclera, the vitreous was harvested and fluorescence was quantified using a fluorometer. The concentrations of fluorescein were found using a calibration curve for the relative fluorescence (Table 3). Additionally in FIGS. 11A-11B, the delivery and localization of fluorescein can be seen in the posterior eye segment. Fluorescence was produced using a UV light source and observed thorough an orange filter. The regions near the cathode component show localizations of fluorescein at the exterior and interior surfaces. The final concentration in the vitreous was also used to calculate the time averaged flux of the fluorescein and the electrophoretic mobility. […]

[2] = Ex vivo iontophoretic delivery of Nile Blue to the posterior eye segment (confocal microscopy)
Source text: as §1, §2
as §3, with “current. […]” for “current.”

[3] = Ex vivo iontophoretic delivery of Nile Blue A dye through the cornea from a drug loaded contact lens (camera and confocal imaging)
Source text: Materials: Mature cadaver rabbit eyes were purchased from Pel-Freez Biologicals (Rogers, AR). The Nile Blue A dye was purchased from Sigma-Aldrich (St. Louis, MO) with a 75% dye content. Electrode materials were either made from generic lead-free, silver bearing solder or was 3D printed with conductive PLA filament (Proto Pasta, Vancouver, WA). Cadaver rabbit eyes were fixed in Margo solution containing paraformaldehyde and glutaraldehyde purchased from Fisher Scientific (Hampton, NH). Soaking agents for lenses included phosphate buffered saline (PBS), 1 M HEPES, a HEPES buffer solution containing sodium chloride, calcium chloride, magnesium chloride, and potassium phosphate were all purchased from Fisher Scientific (Hampton, NH). Commercial contact lenses Acuvue Oasys (14 mm diameter, 8.4 mm base curve, 0.0 power) were used in the study.
Lens Preparation: Contact lenses were loaded by soaking in a Nile Blue A dye solution (1 mg/mL) in DI water for two days. To investigate the effect of buffer, lenses were soaked in either pure HEPES or HEPES buffer for 10 minutes prior to placement on the cadaver eyes. The molecular weight of HEPES is 238 allowing rapid uptake by the contact lenses. […]
In order to quantify drug delivery, diffusion efficacy was measured by simultaneous comparison of four separate eyes, each corresponding to a different condition. […]

Flux (time averaged) ([1]; 1 hr 0.125 mA)	Concentration in Vitreous ([1]; 1 hr 0.125 mA) [ng/mL]	Flux (time averaged) ([1]; 1 hr 0.250 mA)	Concentration in Vitreous ([1]; 1 hr 0.250 mA) [ng/mL]	Flux (time averaged) ([1]; 2 hr 0.125 mA)	Concentration in Vitreous ([1]; 2 hr 0.125 mA) [ng/mL]	electrophoretic velocity from the data of Table 3 ([1]; high current (0.25 mA) experiments) [μm/s]	electrophoretic velocity from the data of Table 3 ([1]; low current (0.125 mA) experiments) [μm/s]	distribution of Nile Blue A dye across sclera, choroid, and retina ([2]; all applied currents and times)	transport of Nile Blue A dye across sclera, choroid, and retina (confocal) ([2]; low current and short time duration)	Nile Blue A dye present throughout the cornea (confocal) ([3]; diffusion only, no electric field, from contact lens or standing solution, after 1 hr)	Nile Blue A dye delivered to the cornea (ROI analysis) ([3]; lenses loaded in DI water, all current and time conditions (0.25 or 0.125 mA, 30 or 60 min))	Structure (SMILES)	damage to the posterior eye segment (confocal imaging) ([2]; hybrid lenses: PBS at anode, HEPES at cathode)
7.18 kg/m^2s [×10^7]	33.8	14.93 kg/m^2s [×10^7]	70.4	6.46 kg/m^2s [×10^7]	60.9	~2.6	~1.3					O=C1OC2(c3ccc(O)cc3Oc3cc(O)ccc32)c2ccccc21 [Fluorescein]	
								uniform	sufficient transport	very minor amounts	significant quantities	CC[N+](CC)=c1ccc2nc3c(cc(N)c4ccccc43)oc-2c1 [Nile Blue A dye]	no apparent damage
